Measurements taken from the CheMixHub viscosity set.

Experiment: xn = mol fraction of the nth substance listed

NC=O + CC(C)(C)O
308 K, 101 kPa
Conditions | viscosity [mPa·s]
x1 = 0.1112 | 2.784
x1 = 0.2296 | 3.129
x1 = 0.3735 | 3.402
x1 = 0.5054 | 3.512
x1 = 0.6138 | 3.505
x1 = 0.7045 | 3.383
x1 = 0.7815 | 3.224
x1 = 0.8476 | 3.024
x1 = 0.9051 | 2.817

CN1CCC[C@H]1c1cccnc1 + CC(C)=O
viscosity [mPa·s], 101 kPa
Conditions | x1 = 0.1173 | x1 = 0.2498 | x1 = 0.378 | x1 = 0.5005 | x1 = 0.6228 | x1 = 0.7485 | x1 = 0.8439
298.15 K | 0.4615 | 0.6975 | 0.9326 | 1.28 | 1.695 | 2.274 | 2.856
308.15 K | 0.4184 | 0.6054 | 0.7994 | 1.075 | 1.397 | 1.818 | 2.248
323.15 K | 0.3526 | 0.4988 | 0.6476 | 0.8411 | 1.065 | 1.364 | 1.619

OCCCO + CC(C)=O
viscosity [mPa·s], 100 kPa
Conditions | x2 = 0.1008 | x2 = 0.1914 | x2 = 0.3021 | x2 = 0.4009 | x2 = 0.51 | x2 = 0.6004 | x2 = 0.7 | x2 = 0.7983 | x2 = 0.9002
293.15 K | 29.2 | 17.28 | 9.162 | 5.229 | 2.942 | 1.764 | 1.321 | 1.18 | 1.04
298.15 K | 23.55 | 14.22 | 7.721 | 4.496 | 2.567 | 1.583 | 1.14 | 1.038 | 0.9174
303.15 K | 19.21 | 11.82 | 6.554 | 3.894 | 2.257 | 1.428 | 1.031 | 0.9173 | 0.8122
308.15 K | 15.86 | 9.922 | 5.609 | 3.395 | 1.997 | 1.293 | 0.9331 | 0.8138 | 0.722
313.15 K | 13.22 | 8.416 | 4.85 | 2.979 | 1.78 | 1.175 | 0.8442 | 0.7248 | 0.6442
318.15 K | 11.13 | 7.191 | 4.215 | 2.633 | 1.597 | 1.07 | 0.7632 | 0.6479 | 0.5768
323.15 K | 9.46 | 6.198 | 3.679 | 2.343 | 1.433 | 0.9737 | 0.6946 | 0.5811 | 0.5183

CCOC(=O)CCC(=O)OCC + CC(C)CCO
viscosity [mPa·s], 100 kPa
Conditions | 293.15 K | 298.15 K | 313.15 K
x1 = 0.5 | – | 2.025 | –
x1 = 0.7999 | 2.455 | – | 1.635

CCOC(=O)CCC(=O)OCC + CC(C)CO
Conditions | viscosity [mPa·s]
303.15 K, 100 kPa, x1 = 0.0999 | 2.135

NC=O + CC(C)CO
308 K, 101 kPa
Conditions | viscosity [mPa·s]
x1 = 0.1092 | 2.344
x1 = 0.2053 | 2.444
x1 = 0.3677 | 2.574
x1 = 0.4992 | 2.682
x1 = 0.6079 | 2.757
x1 = 0.6993 | 2.788
x1 = 0.7772 | 2.782
x1 = 0.844 | 2.744
x1 = 0.9029 | 2.701

CCN(CC)CC(=O)Nc1c(C)cccc1C + CC(C)[C@@H]1CC[C@@H](C)C[C@H]1O
100 kPa, x2 = 0.667
Conditions | viscosity [mPa·s]
293.15 K | 69.38
298.15 K | 45.91
303.15 K | 31.73
308.15 K | 22.78
313.15 K | 16.87
318.15 K | 12.85
323.15 K | 10.02

CN1CCC[C@H]1c1cccnc1 + CC(O)CO
100 kPa
Conditions | viscosity [mPa·s]
293.15 K, x1 = 0.1 | 59.35
293.15 K, x1 = 0.3 | 44.85
298.15 K, x1 = 0.6005 | 14.25
303.15 K, x1 = 0.2009 | 28.85
308.15 K, x1 = 0.6005 | 8.935
313.15 K, x1 = 0.7 | 5.605
313.15 K, x1 = 0.7983 | 4.425
318.15 K, x1 = 0.3 | 11.45

NC=O + CC(O)CO
viscosity [mPa·s], 101 kPa
Conditions | 293.15 K | 298.15 K | 303.15 K | 308.15 K | 313.15 K | 318.15 K
x1 = 0.0567 | 41.37 | 33.51 | 27.96 | 23 | 18.07 | 14.26
x1 = 0.1191 | 36.96 | 29.71 | 24.4 | 19.81 | 15.28 | 11.93
x1 = 0.1736 | – | 29.68 | – | – | – | –
x1 = 0.1881 | 33.2 | 26.49 | 21.59 | 17.16 | 12.95 | 9.801
x1 = 0.2649 | 29.41 | 23.3 | 18.92 | 14.86 | 10.98 | 8.107
x1 = 0.3159 | – | 22.75 | – | – | – | –
x1 = 0.3409 | 25.85 | 20.41 | 16.5 | 12.9 | 9.425 | 6.875
x1 = 0.4166 | – | 18.75 | – | – | – | –
x1 = 0.4478 | 21.21 | 16.73 | 13.52 | 10.58 | 7.704 | 5.602
x1 = 0.5518 | – | 14.59 | – | – | – | –
x1 = 0.5578 | 16.8 | 13.31 | 10.81 | 8.506 | 6.3 | 4.653
x1 = 0.6017 | – | 13.69 | – | – | – | –
x1 = 0.654 | – | 12.31 | – | – | – | –
x1 = 0.6838 | 12.2 | 9.902 | 8.159 | 6.542 | 5.072 | 3.959
x1 = 0.7347 | – | 10.26 | – | – | – | –
x1 = 0.8117 | – | 8.254 | – | – | – | –
x1 = 0.8295 | 7.586 | 6.35 | 5.433 | 4.647 | 3.789 | 3.144
x1 = 0.8808 | – | 6.511 | – | – | – | –
x1 = 0.8818 | 6.101 | 5.206 | 4.59 | 4.003 | 3.386 | 2.902
x1 = 0.9392 | 4.756 | 4.189 | 3.805 | 3.401 | 2.96 | 2.601
x1 = 0.9434 | – | 4.916 | – | – | – | –

OCCCO + CC(O)CO
viscosity [mPa·s], 101 kPa
Conditions | x2 = 0.1014 | x2 = 0.2101 | x2 = 0.2999 | x2 = 0.4071 | x2 = 0.5013 | x2 = 0.5925 | x2 = 0.7113 | x2 = 0.8005 | x2 = 0.9208
298.15 K | 42.34 | 42.71 | – | – | 43.62 | 43.82 | 43.95 | 43.88 | –
303.15 K | – | 34.03 | 34.2 | 34.39 | 34.49 | 34.55 | 34.49 | 34.36 | 34.11
308.15 K | 27.18 | 27.11 | 27.05 | – | – | – | 26.36 | 26.06 | 25.59

CN1CCC[C@H]1c1cccnc1 + CCC(C)=O
viscosity [mPa·s], 101 kPa
Conditions | x1 = 0.1253 | x1 = 0.2463 | x1 = 0.3642 | x1 = 0.4878 | x1 = 0.6133 | x1 = 0.7374 | x1 = 0.883
298.15 K | 0.5454 | 0.7187 | 0.9572 | 1.246 | 1.646 | 2.2 | 3.069
323.15 K | 0.4075 | 0.5104 | 0.6647 | 0.8283 | 1.041 | 1.316 | 1.767

OCCCO + CCC(C)=O
Conditions | viscosity [mPa·s]
318.15 K, 100 kPa, x1 = 0.7989 | 6.885
